Test results from PubChem BioAssay AID256 (DTP/NCI, 2004).
Where “and” joins values, the source holds several entries; their conditions need not be identical. Identical values can stand only once. Inconclusive results and toxic doses are left out. How the source made its calls: active means survival T/C of 150% or more; inactive means T/C below 125% in these data.

Tested on: CD2F1 mice, L1210 leukemia ip, survival T/C
Experiment: NCI In Vivo Anticancer Drug Screen. Data for tumor model L1210 Leukemia (intraperitoneal) in CD2F1 (CDF1) mice
Details: higher = longer survival
Summary of the method: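 Activity against a transplanted murine tumor was judged by comparing the compound group with a vehicle group. The outcome in the treated animals was divided by that in the controls.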

Measured: T/C

CN(C)/N=N/c1nc[nH]c1C(N)=O
active: endpoint: mean survival time, dose: 67.0 mg/kg/injection, schedule: Q01DX009 (ip), vehicle: carboxymethylcellulose (CMC) 160 % of control | endpoint: mean survival time, dose: 97.0 mg/kg/injection, schedule: Q01DX009 (ip), vehicle: carboxymethylcellulose (CMC) 154 % of control | endpoint: mean survival time, dose: 100.0 mg/kg/injection, schedule: Q01DX009 (ip), vehicle: carboxymethylcellulose (CMC) 160 % of control | endpoint: mean survival time, dose: 150.0 mg/kg/injection, schedule: Q01DX009 (ip), vehicle: Klucel (hydroxypropylcellulose) (HPC) 172 % of control | endpoint: mean survival time, dose: 200.0 mg/kg/injection, schedule: Q01DX007 (ip), vehicle: saline 159 % of control | endpoint: mean survival time, dose: 200.0 mg/kg/injection, schedule: Q01DX009 (ip), vehicle: DMSO 174 % of control | endpoint: mean survival time, dose: 200.0 mg/kg/injection, schedule: Q01DX009 (ip), vehicle: saline 151 % of control | endpoint: mean survival time, dose: 200.0 mg/kg/injection, schedule: Q01DX009 (ip), vehicle: steriod suspending solution 157 % of control | endpoint: mean survival time, dose: 200.0 mg/kg/injection, schedule: Q01DX009 (oral), vehicle: steriod suspending solution 169 % of control | endpoint: mean survival time, dose: 400.0 mg/kg/injection, schedule: Q01DX009 (oral), vehicle: steriod suspending solution 152 % of control | endpoint: mean survival time, dose: 800.0 mg/kg/injection, schedule: Q08DX002 (ip), vehicle: steriod suspending solution 164 % of control
inactive: endpoint: mean survival time, dose: 1.56 mg/kg/injection, schedule: Q03HX024 (ip), vehicle: steriod suspending solution 105 % of control | endpoint: mean survival time, dose: 1.56 mg/kg/injection, schedule: Q03HX024 (oral), vehicle: steriod suspending solution 105 % of control | endpoint: mean survival time, dose: 2.9 mg/kg/injection, schedule: Q01DX009 (ip), vehicle: Klucel (hydroxypropylcellulose) (HPC) 103 % of control | endpoint: mean survival time, dose: 3.12 mg/kg/injection, schedule: Q03HX024 (ip), vehicle: steriod suspending solution 115 % of control | endpoint: mean survival time, dose: 3.12 mg/kg/injection, schedule: Q03HX024 (oral), vehicle: steriod suspending solution 107 % of control | endpoint: mean survival time, dose: 5.7 mg/kg/injection, schedule: Q01DX009 (ip), vehicle: Klucel (hydroxypropylcellulose) (HPC) 108 % of control | endpoint: mean survival time, dose: 6.25 mg/kg/injection, schedule: Q03HX016 (ip), vehicle: steriod suspending solution 107 % of control | endpoint: mean survival time, dose: 6.25 mg/kg/injection, schedule: Q03HX016 (oral), vehicle: steriod suspending solution 110 % of control | endpoint: mean survival time, dose: 6.25 mg/kg/injection, schedule: Q03HX024 (oral), vehicle: steriod suspending solution 104 % of control | endpoint: mean survival time, dose: 11.4 mg/kg/injection, schedule: Q01DX009 (ip), vehicle: Klucel (hydroxypropylcellulose) (HPC) 104 % of control and 105 % of control | endpoint: mean survival time, dose: 12.5 mg/kg/injection, schedule: Q01DX001 (ip), vehicle: distilled water + Tween-80 104 % of control and 105 % of control | endpoint: mean survival time, dose: 12.5 mg/kg/injection, schedule: Q03HX016 (ip), vehicle: steriod suspending solution 109 % of control | endpoint: mean survival time, dose: 12.5 mg/kg/injection, schedule: Q03HX016 (oral), vehicle: steriod suspending solution 109 % of control | endpoint: mean survival time, dose: 12.5 mg/kg/injection, schedule: Q03HX024 (ip), vehicle: steriod suspending solution 116 % of control | endpoint: mean survival time, dose: 22.7 mg/kg/injection, schedule: Q01DX009 (ip), vehicle: Klucel (hydroxypropylcellulose) (HPC) 115 % of control and 110 % of control | endpoint: mean survival time, dose: 25.0 mg/kg/injection, schedule: Q01DX001 (ip), vehicle: distilled water + Tween-80 103 % of control and 104 % of control | endpoint: mean survival time, dose: 25.0 mg/kg/injection, schedule: Q01DX009 (ip), vehicle: DMSO 110 % of control | endpoint: mean survival time, dose: 25.0 mg/kg/injection, schedule: Q01DX009 (ip), vehicle: saline 117 % of control | endpoint: mean survival time, dose: 25.0 mg/kg/injection, schedule: Q01DX009 (ip), vehicle: water 113 % of control | endpoint: mean survival time, dose: 25.0 mg/kg/injection, schedule: Q03HX016 (oral), vehicle: steriod suspending solution 110 % of control | endpoint: mean survival time, dose: 25.0 mg/kg/injection, schedule: Q03HX024 (ip), vehicle: steriod suspending solution 118 % of control | endpoint: mean survival time, dose: 25.0 mg/kg/injection, schedule: Q03HX024 (oral), vehicle: steriod suspending solution 122 % of control | endpoint: mean survival time, dose: 25.0 mg/kg/injection, schedule: Q04DX003 (ip), vehicle: other 110 % of control | endpoint: mean survival time, dose: 25.0 mg/kg/injection, schedule: Q04DX003 (ip), vehicle: water 105 % of control | endpoint: mean survival time, dose: 45.5 mg/kg/injection, schedule: Q01DX009 (ip), vehicle: Klucel (hydroxypropylcellulose) (HPC) 115 % of control and 123 % of control | endpoint: mean survival time, dose: 50.0 mg/kg/injection, schedule: Q01DX001 (ip), vehicle: distilled water + Tween-80 113 % of control and 106 % of control | endpoint: mean survival time, dose: 50.0 mg/kg/injection, schedule: Q01DX005 (ip), vehicle: other 117 % of control | endpoint: mean survival time, dose: 50.0 mg/kg/injection, schedule: Q01DX009 (ip), vehicle: DMSO 120 % of control | endpoint: mean survival time, dose: 50.0 mg/kg/injection, schedule: Q01DX009 (ip), vehicle: saline 116 % of control | endpoint: mean survival time, dose: 50.0 mg/kg/injection, schedule: Q01DX009 (ip), vehicle: steriod suspending solution 115 % of control | endpoint: mean survival time, dose: 50.0 mg/kg/injection, schedule: Q03DX003 (ip), vehicle: saline 110 % of control | endpoint: mean survival time, dose: 50.0 mg/kg/injection, schedule: Q03HX016 (ip), vehicle: steriod suspending solution 115 % of control | endpoint: mean survival time, dose: 50.0 mg/kg/injection, schedule: Q03HX016 (oral), vehicle: steriod suspending solution 105 % of control | endpoint: mean survival time, dose: 50.0 mg/kg/injection, schedule: Q04DX003 (ip), vehicle: Klucel (hydroxypropylcellulose) (HPC) 103 % of control | endpoint: mean survival time, dose: 50.0 mg/kg/injection, schedule: Q04DX003 (ip), vehicle: other 114 % of control | endpoint: mean survival time, dose: 50.0 mg/kg/injection, schedule: Q04DX003 (ip), vehicle: saline 105 % of control | endpoint: mean survival time, dose: 50.0 mg/kg/injection, schedule: Q04DX003 (ip), vehicle: water 117 % of control | endpoint: mean survival time, dose: 60.0 mg/kg/injection, schedule: Q04DX003 (ip), vehicle: saline 88 % of control and 108 % of control | endpoint: mean survival time, dose: 80.0 mg/kg/injection, schedule: Q04DX003 (ip), vehicle: saline 92 % of control and 106 % of control | endpoint: mean survival time, dose: 91.0 mg/kg/injection, schedule: Q01DX009 (ip), vehicle: Klucel (hydroxypropylcellulose) (HPC) 121 % of control | endpoint: mean survival time, dose: 100.0 mg/kg/injection, schedule: Q01DX001 (ip), vehicle: distilled water + Tween-80 114 % of control and 117 % of control | endpoint: mean survival time, dose: 100.0 mg/kg/injection, schedule: Q03DX003 (ip), vehicle: saline 120 % of control | endpoint: mean survival time, dose: 100.0 mg/kg/injection, schedule: Q03HX016 (ip), vehicle: steriod suspending solution 122 % of control | endpoint: mean survival time, dose: 100.0 mg/kg/injection, schedule: Q03HX016 (oral), vehicle: steriod suspending solution 116 % of control | endpoint: mean survival time, dose: 100.0 mg/kg/injection, schedule: Q04DX003 (ip), vehicle: Klucel (hydroxypropylcellulose) (HPC) 114 % of control | endpoint: mean survival time, dose: 100.0 mg/kg/injection, schedule: Q04DX003 (ip), vehicle: other 114 % of control and 120 % of control | endpoint: mean survival time, dose: 100.0 mg/kg/injection, schedule: Q04DX003 (ip), vehicle: saline 108 % of control | endpoint: mean survival time, dose: 100.0 mg/kg/injection, schedule: Q04DX003 (ip), vehicle: steriod suspending solution 116 % of control | endpoint: mean survival time, dose: 100.0 mg/kg/injection, schedule: Q04DX003 (oral), vehicle: steriod suspending solution 116 % of control | endpoint: mean survival time, dose: 100.0 mg/kg/injection, schedule: Q08DX002 (ip), vehicle: steriod suspending solution 117 % of control | endpoint: mean survival time, dose: 100.0 mg/kg/injection, schedule: Q08DX002 (oral), vehicle: steriod suspending solution 115 % of control | endpoint: mean survival time, dose: 150.0 mg/kg/injection, schedule: Q01DX001 (oral), vehicle: saline 101 % of control | endpoint: mean survival time, dose: 180.0 mg/kg/injection, schedule: Q04DX003 (ip), vehicle: saline 114 % of control and 108 % of control | endpoint: mean survival time, dose: 182.0 mg/kg/injection, schedule: Q01DX009 (ip), vehicle: Klucel (hydroxypropylcellulose) (HPC) 120 % of control | endpoint: mean survival time, dose: 200.0 mg/kg/injection, schedule: Q01DX001 (ip), vehicle: distilled water + Tween-80 120 % of control | endpoint: mean survival time, dose: 200.0 mg/kg/injection, schedule: Q01DX009 (ip), vehicle: water 118 % of control | endpoint: mean survival time, dose: 200.0 mg/kg/injection, schedule: Q04DX003 (ip), vehicle: Klucel (hydroxypropylcellulose) (HPC) 123 % of control | endpoint: mean survival time, dose: 200.0 mg/kg/injection, schedule: Q04DX003 (ip), vehicle: steriod suspending solution 116 % of control | endpoint: mean survival time, dose: 200.0 mg/kg/injection, schedule: Q04DX003 (oral), vehicle: steriod suspending solution 122 % of control | endpoint: mean survival time, dose: 200.0 mg/kg/injection, schedule: Q08DX002 (oral), vehicle: steriod suspending solution 118 % of control | endpoint: mean survival time, dose: 300.0 mg/kg/injection, schedule: Q01DX001 (oral), vehicle: saline 113 % of control | endpoint: mean survival time, dose: 364.0 mg/kg/injection, schedule: Q01DX009 (ip), vehicle: Klucel (hydroxypropylcellulose) (HPC) 63 % of control | endpoint: mean survival time, dose: 400.0 mg/kg/injection, schedule: Q01DX005 (ip), vehicle: other 113 % of control | endpoint: mean survival time, dose: 400.0 mg/kg/injection, schedule: Q01DX009 (ip), vehicle: water 96 % of control | endpoint: mean survival time, dose: 400.0 mg/kg/injection, schedule: Q08DX002 (ip), vehicle: steriod suspending solution 121 % of control | endpoint: mean survival time, dose: 600.0 mg/kg/injection, schedule: Q01DX001 (oral), vehicle: saline 121 % of control | endpoint: mean survival time, dose: 800.0 mg/kg/injection, schedule: Q08DX002 (oral), vehicle: steriod suspending solution 123 % of control | endpoint: median survival time, dose: 9.8 mg/kg/injection, schedule: Q03HX008 (ip), vehicle: Klucel (hydroxypropylcellulose) (HPC) 105 % of control | endpoint: median survival time, dose: 22.2 mg/kg/injection, schedule: Q03HX008 (ip), vehicle: Klucel (hydroxypropylcellulose) (HPC) 114 % of control | endpoint: median survival time, dose: 33.3 mg/kg/injection, schedule: Q03HX008 (ip), vehicle: Klucel (hydroxypropylcellulose) (HPC) 123 % of control | endpoint: median survival time, dose: 48.0 mg/kg/injection, schedule: Q01DX005 (ip), vehicle: Klucel (hydroxypropylcellulose) (HPC) 115 % of control | endpoint: median survival time, dose: 50.0 mg/kg/injection, schedule: Q02DX005 (ip), vehicle: Klucel (hydroxypropylcellulose) (HPC) 121 % of control | endpoint: median survival time, dose: 72.0 mg/kg/injection, schedule: Q01DX005 (ip), vehicle: Klucel (hydroxypropylcellulose) (HPC) 123 % of control | endpoint: median survival time, dose: 100.0 mg/kg/injection, schedule: Q02DX005 (ip), vehicle: Klucel (hydroxypropylcellulose) (HPC) 117 % of control | endpoint: median survival time, dose: 108.0 mg/kg/injection, schedule: Q01DX005 (ip), vehicle: Klucel (hydroxypropylcellulose) (HPC) 124 % of control | endpoint: median survival time, dose: 240.0 mg/kg/injection, schedule: Q01DX001 (ip), vehicle: Klucel (hydroxypropylcellulose) (HPC) 115 % of control | endpoint: median survival time, dose: 600.0 mg/kg/injection, schedule: Q01DX001 (ip), vehicle: Klucel (hydroxypropylcellulose) (HPC) 121 % of control | endpoint: median survival time, dose: 900.0 mg/kg/injection, schedule: Q01DX001 (ip), vehicle: Klucel (hydroxypropylcellulose) (HPC) 123 % of control
